EPA's CvTdb concentration-time database

Experiments:
Rat [1] = assay: concentration in liver after dosing; settings: 24 h; dosed: Perfluorooctanoic acid; 12 mg/kg; oral; Male; Harlan Sprague Dawley
Rat [2] = assay: concentration in brain after dosing; settings: 6 h; dosed: Perfluorooctanoic acid; 12 mg/kg; oral; Male; Harlan Sprague Dawley
Rat [3] = assay: concentration in brain after dosing; settings: oral, Harlan Sprague Dawley
Rat [4] = assay: concentration in plasma after dosing; settings: 192 h; dosed: 678-39-7; 12 mg/kg; iv; Male; F344
Rat [5] = assay: concentration in brain after dosing; settings: 3 h; dosed: Perfluorooctanoic acid; 80 mg/kg; oral; Female; Harlan Sprague Dawley
Rat [6] = assay: concentration in kidney after dosing; settings: oral
Rat [7] = assay: concentration in liver after dosing; settings: oral
Rat [8] = assay: concentration in plasma after dosing; settings: dosed: 678-39-7, 12 mg/kg, iv, Male, F344
Rat [9] = assay: concentration in plasma after dosing
Rat [10] = assay: concentration in kidney after dosing; settings: 1200 h; dosed: Perfluorooctanoic acid; 12 mg/kg; oral; Male; Harlan Sprague Dawley
Rat [11] = assay: concentration in plasma after dosing; settings: dosed: 678-39-7, 12 mg/kg, iv, Male, F344; remark: listed apart in the source

O=C(O)C(F)(F)C(F)(F)C(F)(F)C(F)(F)C(F)(F)C(F)(F)C(F)(F)F [Perfluorooctanoic acid]
Settings | concentration in brain [ng/g] | concentration in kidney [ng/g] | concentration in liver [ng/g] | concentration in plasma [ng/mL]
Rat [1] | – | – | 62500 | –
Rat [2] | 1290 | – | – | –
Rat [4] | – | – | – | 307
Rat [5] | 3490 | – | – | –
Rat [10] | – | 1110 | – | –

Settings | concentration in brain [ng/g] | concentration in kidney [ng/g] | concentration in liver [ng/g]
Rat [3], 3 h, dosed: Perfluorooctanoic acid, 12 mg/kg, Male | 1300 | – | –
Rat [3], 3 h, dosed: Perfluorooctanoic acid, 80 mg/kg, Female | 916 | – | –
Rat [3], 6 h, dosed: Perfluorooctanoic acid, 12 mg/kg, Male | 1140 | – | –
Rat [3], 6 h, dosed: Perfluorooctanoic acid, 80 mg/kg, Female | 4050 | – | –
Rat [3], 12 h, dosed: Perfluorooctanoic acid, 12 mg/kg, Male | 1390 | – | –
Rat [3], 12 h, dosed: Perfluorooctanoic acid, 80 mg/kg, Female | 1360 | – | –
Rat [3], 24 h, dosed: Perfluorooctanoic acid, 12 mg/kg, Male | 1080 | – | –
Rat [3], 192 h, dosed: Perfluorooctanoic acid, 12 mg/kg, Male | 584 | – | –
Rat [6], 0.5 h, dosed: Fluorotelomer alcohol 8+2, 80 mg/kg, Female, Harlan Sprague Dawley | – | 284 | –
Rat [6], 1 h, dosed: Fluorotelomer alcohol 8+2, 24 mg/kg, Male, Harlan Sprague Dawley | – | 190 | –
Rat [6], 1 h, dosed: Fluorotelomer alcohol 8+2, 80 mg/kg, Female, Harlan Sprague Dawley | – | 677 | –
Rat [6], 3 h, dosed: Fluorotelomer alcohol 8+2, 24 mg/kg, Male, Harlan Sprague Dawley | – | 270 | –
Rat [6], 3 h, dosed: Fluorotelomer alcohol 8+2, 80 mg/kg, Female, Harlan Sprague Dawley | – | 1260 | –
Rat [6], 6 h, dosed: Fluorotelomer alcohol 8+2, 24 mg/kg, Male, Harlan Sprague Dawley | – | 243 | –
Rat [6], 6 h, dosed: Fluorotelomer alcohol 8+2, 80 mg/kg, Female, Harlan Sprague Dawley | – | 2480 | –
Rat [6], 12 h, dosed: Fluorotelomer alcohol 8+2, 24 mg/kg, Male, Harlan Sprague Dawley | – | 419 | –
Rat [6], 12 h, dosed: Fluorotelomer alcohol 8+2, 80 mg/kg, Female, Harlan Sprague Dawley | – | 874 | –
Rat [7], 0.5 h, dosed: Fluorotelomer alcohol 8+2, 24 mg/kg, Male, Harlan Sprague Dawley | – | – | 325
Rat [7], 0.5 h, dosed: Fluorotelomer alcohol 8+2, 24 mg/kg, Male, Harlan Sprague Dawley - this seems too small | – | – | 211
Rat [7], 0.5 h, dosed: Fluorotelomer alcohol 8+2, 80 mg/kg, Female, Harlan Sprague Dawley | – | – | 434
Rat [7], 1 h, dosed: Fluorotelomer alcohol 8+2, 24 mg/kg, Male, Harlan Sprague Dawley | – | – | 751
Rat [7], 1 h, dosed: Fluorotelomer alcohol 8+2, 80 mg/kg, Female, Harlan Sprague Dawley | – | – | 816
Rat [7], 3 h, dosed: Fluorotelomer alcohol 8+2, 24 mg/kg, Male, Harlan Sprague Dawley | – | – | 1150
Rat [7], 3 h, dosed: Fluorotelomer alcohol 8+2, 80 mg/kg, Female, Harlan Sprague Dawley | – | – | 1540
Rat [7], 6 h, dosed: Fluorotelomer alcohol 8+2, 24 mg/kg, Male, Harlan Sprague Dawley | – | – | 1460
Rat [7], 6 h, dosed: Fluorotelomer alcohol 8+2, 80 mg/kg, Female, Harlan Sprague Dawley | – | – | 1970
Rat [7], 12 h, dosed: Fluorotelomer alcohol 8+2, 24 mg/kg, Male, Harlan Sprague Dawley | – | – | 2000
Rat [7], 12 h, dosed: Fluorotelomer alcohol 8+2, 80 mg/kg, Female, Harlan Sprague Dawley | – | – | 701

Settings | concentration in brain [ng/g]
Rat [3], 6 h, dosed: Fluorotelomer alcohol 8+2, 80 mg/kg, Female | 224

Settings | concentration in kidney [ng/g] | concentration in liver [ng/g] | concentration in plasma [ng/mL]
Rat [6], 3 h, dosed: Perfluorooctanoic acid, 12 mg/kg, Male, Harlan Sprague Dawley | 42500 | – | –
Rat [6], 3 h, dosed: Perfluorooctanoic acid, 80 mg/kg, Female, Harlan Sprague Dawley | 70300 | – | –
Rat [6], 6 h, dosed: Perfluorooctanoic acid, 12 mg/kg, Male, Harlan Sprague Dawley | 25600 | – | –
Rat [6], 6 h, dosed: Perfluorooctanoic acid, 80 mg/kg, Female, Harlan Sprague Dawley | 263000 | – | –
Rat [6], 12 h, dosed: Perfluorooctanoic acid, 12 mg/kg, Male, Harlan Sprague Dawley | 36200 | – | –
Rat [6], 12 h, dosed: Perfluorooctanoic acid, 80 mg/kg, Female, Harlan Sprague Dawley | 61600 | – | –
Rat [6], 24 h, dosed: Perfluorooctanoic acid, 12 mg/kg, Male, Harlan Sprague Dawley | 30400 | – | –
Rat [6], 24 h, dosed: Perfluorooctanoic acid, 80 mg/kg, Female, Harlan Sprague Dawley | 11600 | – | –
Rat [6], 48 h, dosed: Perfluorooctanoic acid, 80 mg/kg, Female, Harlan Sprague Dawley | 541 | – | –
Rat [6], 192 h, dosed: Perfluorooctanoic acid, 12 mg/kg, Male, Harlan Sprague Dawley | 20300 | – | –
Rat [6], 528 h, dosed: Perfluorooctanoic acid, 12 mg/kg, Male, Harlan Sprague Dawley | 3900 | – | –
Rat [6], 528 h, dosed: Perfluorooctanoic acid, 12 mg/kg, Male, Harlan Sprague Dawley - this seems too small | 6140 | – | –
Rat [6], 1200 h, dosed: Perfluorooctanoic acid, 12 mg/kg, Male, Harlan Sprague Dawley | 574 | – | –
Rat [7], 3 h, dosed: Perfluorooctanoic acid, 12 mg/kg, Male, Harlan Sprague Dawley | – | 49900 | –
Rat [7], 3 h, dosed: Perfluorooctanoic acid, 80 mg/kg, Female, Harlan Sprague Dawley | – | 35300 | –
Rat [7], 6 h, dosed: Perfluorooctanoic acid, 12 mg/kg, Male, Harlan Sprague Dawley | – | 51000 | –
Rat [7], 6 h, dosed: Perfluorooctanoic acid, 80 mg/kg, Female, Harlan Sprague Dawley | – | 197000 | –
Rat [7], 12 h, dosed: Perfluorooctanoic acid, 12 mg/kg, Male, Harlan Sprague Dawley | – | 65600 | –
Rat [7], 12 h, dosed: Perfluorooctanoic acid, 80 mg/kg, Female, Harlan Sprague Dawley | – | 52000 | –
Rat [7], 24 h, dosed: Perfluorooctanoic acid, 12 mg/kg, Male, Harlan Sprague Dawley | – | 64800 | –
Rat [7], 24 h, dosed: Perfluorooctanoic acid, 80 mg/kg, Female, Harlan Sprague Dawley | – | 7890 | –
Rat [7], 48 h, dosed: Perfluorooctanoic acid, 80 mg/kg, Female, Harlan Sprague Dawley | – | 573 | –
Rat [7], 192 h, dosed: Perfluorooctanoic acid, 12 mg/kg, Male, Harlan Sprague Dawley | – | 48600 | –
Rat [7], 528 h, dosed: Perfluorooctanoic acid, 12 mg/kg, Male, Harlan Sprague Dawley | – | 14900 | –
Rat [7], 528 h, dosed: Perfluorooctanoic acid, 12 mg/kg, Male, Harlan Sprague Dawley - this seems too small | – | 22600 | –
Rat [7], 1200 h, dosed: Perfluorooctanoic acid, 12 mg/kg, Male, Harlan Sprague Dawley | – | 2160 | –
Rat [9], 0.25 h, dosed: 678-39-7, 12 mg/kg, iv, Male, F344 | – | – | 184
Rat [9], 0.25 h, dosed: 678-39-7, 40 mg/kg, iv, Male, F344 | – | – | 257000
Rat [9], 0.25 h, dosed: Fluorotelomer alcohol 8+2, 12 mg/kg, oral, Male, Harlan Sprague Dawley | – | – | 14.2
Rat [9], 0.5 h, dosed: 678-39-7, 12 mg/kg, iv, Male, F344 | – | – | 282
Rat [9], 0.5 h, dosed: 678-39-7, 40 mg/kg, iv, Female, Harlan Sprague-Dawley | – | – | 1570
Rat [9], 0.5 h, dosed: 678-39-7, 40 mg/kg, iv, Male, F344 | – | – | 1510
Rat [9], 0.5 h, dosed: Fluorotelomer alcohol 8+2, 12 mg/kg, oral, Male, Harlan Sprague Dawley | – | – | 68.8
Rat [9], 0.75 h, dosed: 678-39-7, 12 mg/kg, iv, Male, F344 | – | – | 203
Rat [9], 0.75 h, dosed: 678-39-7, 40 mg/kg, iv, Female, Harlan Sprague-Dawley | – | – | 1860
Rat [9], 0.75 h, dosed: Fluorotelomer alcohol 8+2, 12 mg/kg, oral, Male, Harlan Sprague Dawley | – | – | 159
Rat [9], 1 h, dosed: 678-39-7, 12 mg/kg, iv, Male, F344 | – | – | 396
Rat [9], 1 h, dosed: 678-39-7, 40 mg/kg, iv, Female, Harlan Sprague-Dawley | – | – | 2280
Rat [9], 3 h, dosed: 678-39-7, 12 mg/kg, iv, Male, F344 | – | – | 478
Rat [9], 3 h, dosed: 678-39-7, 40 mg/kg, iv, Male, F344 | – | – | 2030
Rat [9], 3 h, dosed: Fluorotelomer alcohol 8+2, 12 mg/kg, oral, Male, Harlan Sprague Dawley | – | – | 423
Rat [9], 5 min, dosed: 678-39-7, 12 mg/kg, iv, Male, F344 | – | – | 29.7
Rat [9], 5 min, dosed: 678-39-7, 40 mg/kg, iv, Male, F344 | – | – | 189
Rat [9], 6 h, dosed: 678-39-7, 12 mg/kg, iv, Male, F344 | – | – | 630
Rat [9], 6 h, dosed: Fluorotelomer alcohol 8+2, 12 mg/kg, oral, Male, Harlan Sprague Dawley | – | – | 634
Rat [9], 9 h, dosed: 678-39-7, 12 mg/kg, iv, Male, F344 | – | – | 607
Rat [9], 9 h, dosed: 678-39-7, 40 mg/kg, iv, Female, Harlan Sprague-Dawley | – | – | 622
Rat [9], 9 h, dosed: 678-39-7, 40 mg/kg, iv, Male, F344 | – | – | 702
Rat [9], 9 h, dosed: Fluorotelomer alcohol 8+2, 12 mg/kg, oral, Male, Harlan Sprague Dawley | – | – | 578
Rat [9], 12 h, dosed: 678-39-7, 12 mg/kg, iv, Male, F344 | – | – | 364
Rat [9], 12 h, dosed: 678-39-7, 40 mg/kg, iv, Female, Harlan Sprague-Dawley | – | – | 353
Rat [9], 12 h, dosed: 678-39-7, 40 mg/kg, iv, Male, F344 | – | – | 12300
Rat [9], 12 h, dosed: Fluorotelomer alcohol 8+2, 12 mg/kg, oral, Male, Harlan Sprague Dawley | – | – | 507
Rat [9], 24 h, dosed: 678-39-7, 12 mg/kg, iv, Male, F344 | – | – | 460
Rat [9], 24 h, dosed: 678-39-7, 40 mg/kg, iv, Female, Harlan Sprague-Dawley | – | – | 52.2
Rat [9], 48 h, dosed: Fluorotelomer alcohol 8+2, 12 mg/kg, oral, Male, Harlan Sprague Dawley | – | – | 536
Rat [9], 192 h, dosed: 678-39-7, 12 mg/kg, iv, Male, F344 | – | – | 260
Rat [9], 192 h, dosed: Fluorotelomer alcohol 8+2, 12 mg/kg, oral, Male, Harlan Sprague Dawley | – | – | 356

concentration in plasma [ng/mL]
Settings | 0.25 h | 0.75 h | 12 h | 24 h
Rat [8] | – | 295 | 505 | –
Rat [11] | 102 | – | – | 607
